The target of assay [1] is T1, human type 5 17β-hydroxysteroid dehydrogenase (Homo sapiens, UniProt P42330).
T1 construct: screen again a human placental λgt11 cDNA to get the full length cDNA clone; expressed in transfected cells; host or cells: human embryonal kidney 293 cells (pCMV / pCMV-neo vector)
T1 sequence (P42330 1-323): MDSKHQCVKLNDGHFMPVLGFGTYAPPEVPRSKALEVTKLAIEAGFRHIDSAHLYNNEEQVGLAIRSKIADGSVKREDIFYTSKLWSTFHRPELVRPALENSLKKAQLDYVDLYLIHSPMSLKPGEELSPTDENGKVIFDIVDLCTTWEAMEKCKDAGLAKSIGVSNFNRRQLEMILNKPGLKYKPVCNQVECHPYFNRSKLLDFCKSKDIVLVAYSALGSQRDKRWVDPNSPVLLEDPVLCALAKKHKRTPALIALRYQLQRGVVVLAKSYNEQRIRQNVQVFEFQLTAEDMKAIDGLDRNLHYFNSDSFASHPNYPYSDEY
Description: Inhibition of human type 5 17β-HSD activity in transfected 293 cells. The format is cell-based. The arrangement: Inhibition Type V 17B-HSD % Inh. At 3 · 10^−7 (second value in parentheses): concentration or dose not given beside the values. How it is done:
The manner in which IC50 was determined is described in “Efficacy of the Preferred Inhibitors”. Lower numbers for IC50 are desirable.
Using a oligoprimer pair (5′-GGA-AAT-CGT-GAC-AGG-GAA-TGG-ATT-CCA-AAC-AG-3′, 5′-GGA-ATT-CTT-TAT-TGT-ATT-TCT-GGC-CTA-TGG-AGT-GAG-3′) derived from human aldoketoreductase (Qin et al., J. Steroid Biochem. Molec. Biol. 46: 673-679, 1993) and polymerase chain reaction (PCR), we have amplified from a human placental λgt11 cDNA library (Clontech Laboratories Inc., Palo Alto, Calif.) a cDNA fragment that was used as probe to screen again a human placental λgt11 cDNA to get the full length cDNA clone. The amplified cDNA fragment was purified on agarose gel and labeled with [α^32P]dCTP (Amersham Corp.) using the random primer labeling kit from Pharmacia Inc. PCR amplification reaction medium contained 50 mM KCl, 10 mM Tris-HCl, pH 8.3, 0.1% gelatin, 1 mM MgCl2, 250 μM dNTP, 0.25 μM oligonucleotide primers, and 200 ng of DNA prepared from human placental λgt11 cDNA library. The aqueous phase was overlaid with 75 μL of mineral oil to avoid evaporation. The mixture was heated at 98° C. for 5 min, following the temperature reduction to 72° C., 1 unit of Taq DNA polymerase was added. Using a DNA Thermal Cycler (Perkin-Elmer Corp.), 30 cycles of amplification were carried out using a step program (94° C., 1 min; 60° C., 1 min; and 72° C., 1 min)/cycle.
Approximately 5×10^5 recombinant phage plaques were screened with 1.5×10^6 cpm/ml of the probe. Prehybridization was performed for 4 h at 42° C. in 50% formamide, 5× Denhardt's solution (1× Denhardt's being 0.02% polyvinyl pyrrolidone, 0.02 Ficoll, 0.02 bovine serum albumin), 5×SSPE (1×SSPE being 0.18M NaCl, 10 mM NaH2PO4, pH 7.4, 1 mM EDTA), 0.1% SDS, and 100 μg/ml yeast tRNA. The probe was denatured by heating at 100° C. for 5 min, before being added to the hybridization solution at 42° C. overnight. Filters were then washed twice at room temperature in 2×SSC (1×SSC being […], pH 7.0), 0.1% SDS, and twice in 0.1×SSC, 0.1% SDS at 60° C. Positive recombinant plaques were purified by replating twice and grown in liquid culture. Phage DNA were isolated by centrifugation for 90 min at 105,000×g, and DNA was then isolated by phenol extraction and precipitation with isopropanol (Karen et al. 1987; In: Current Protocols in Molecular Biology (F. M. Ausubel, R. Brent, E. Kingston, D. D. Moore, T. G. Seidman, T. A. Smith and K. Struhl, eds), Wiley & Sons, New York, pp. 1.13.1-1.13.6).
The phage DNA were digested with EcoRI restriction enzymes and the resulting cDNA fragments were inserted into the EcoRI site downstream to the cytomegalovirus (CMV) promoter of the pCMV vector (kindly provided by Dr. Matthew, Cold Spring Harbor, N.Y., USA). Recombinant pCMV plasmids were amplified in Escherichia Coli DH5α competent cells, and were isolated by alkaline lysis procedure (Maniatis et al., In: Molecular cloning: a laboratory manual, Cold Spring Harbor Laboratory., 1982). Sequencing of double-stranded plasmid DNA was performed according to the dideoxy chain termination method (Sanger et al., PNAS 74: 5453-5467, 1977) using a T7 DNA polymerase sequencing kit (Pharmacia LKB Biotechnology). To avoid errors, all sequences were determined by sequencing both strands of the DNA. Oligonucleotide primers were synthesized in our laboratory with a 394 DNA/RNA synthesizer (Applied Biosystem).
The pCMV vector contain 576 nucleotides of the pCMV promoter (followed by 432 bp of small t intron (fragment 4713-4570) and poly adenylation signal (2825-2536)of SV40, followed by 1989 bp of the Pvu II(628)-AatII (2617) fragment from pUC 19 vector (New England Biolabs) that contains an E. Coli origin of replication and an ampicillin resistance gene for propagation in E. Coli. […]

The test system of assay [2] is Shionogi mouse mammary carcinoma cells. Briefly: Androgenic activity: stimulation of proliferation of Shionogi cells. The format is cell-based. How it is done:
In column 9, the androgenic activity of preferred type 5 inhibitors expressed as the percentage of stimulation of proliferation of Shionogi cells at concentrations of 10^−7 M (left number) and 10^−6 M (right number) of inhibitor. The manner in which the stimulation is determined is described in “Other Tests; B-Androgenic/Antiandrogenic Activity”. Lower numbers are desirable. ND means that a determination was not done.
Androgenic/antiandrogenic activity of some preferred compounds has been measured using the Shionogi mouse mammary carcinoma cells.
Minimal essential culture medium (MEM), non-essential amino acids, and fetal calf serum were purchased from Flow Laboratories. In order to remove endogenous steroids, serum was incubated overnight at 4° C. with 1% activated charcoal (Norit A, Fisher) and 0.1% Dextran T-70 (Pharmacia). A 2-h supplementary adsorption was performed at 25° C. in order to further remove protein-bound steroids. Serum was also inactivated by a 20-min incubation at 56° C.
5α-dihydrotestosterone (DHT) was obtained from Steraloids. The antiandrogen hydroxyflutamide (OH-FLU) was kindly supplied by Drs. T. L. Nagabuschan and R. Neri (Schering Corporation, Kenilworth, U.S.A.).
Shionogi male mice bearing androgen-sensitive mammary tumors were obtained from Drs. Keishi Matsumoto, Osaka, Japan, and Yvonne Lefebvre, Ottawa, Canada. For primary culture, tumors were excised and washed in ice-cold sterile 25 mM Hepes buffer (137 mM NaCl; 5 mM KCl; 0.7 mM Na2HPO4; 10 mM glucose, pH 7.2). After mincing with scissors, the tumor minces were digested for 2 h at 37° C. in Hepes buffer containing 3.8 mg/ml collagenase (Clostridium, Boehringer), 1.5 mg/ml hyaluronidase II (Sigma), and 3% bovine serum albumin fraction V (Schwartz-Mann). Dispersed cells were collected by centrifugation (500×g for 10 min), washed twice by suspension in minimal essential medium (MEM) containing 5% dextran-coated charcoal-treated fetal calf serum (DCC-FCS), 1% non-essential amino acids, 10 IU/ml penicillin, 50 μg/ml streptomycin, and 100 nM dihydrotestosterone (DHT) (Steraloids).
Cells were plated in the same medium at a density of 75 000 cells/ml in 75 cm^2 flasks under an atmosphere of 5% carbon dioxide in air at 37° C. The medium was changed weekly. The steroids and antisteroids were dissolved in ethanol and kept in stock solutions chosen to yield final ethanol concentrations less than 0.01% in the culture medium.
Cells were subcultured at near-confidence by gentle digestion in a solution of 0.1% pancreatin (Flow Laboratories) in Hepes buffer containing 3 mM ethylenediaminetetraacetic acid (EDTA) (pH 7.2). Cells were pelleted by centrifugation, resuspended in culture medium, counted in a Coulter counter, and replated as described above. Soft agar cloning was performed as described (Stanley et al., Cell 10: 35-44, 1977) in the presence of 100 nM DHT.
Cells were plated in 24-well plates at a density of 20 000 cells/well. The indicated increasing concentrations of agents were added to triplicate dishes, and cells were grown for 10-12 days with changes of medium every 3-4 days. Cell number was measured by direct counting in a Coulter counter.
ED50 values of action of DHT and glucocorticoids were calculated according to a least-square regression as described (Rodbard, Endocrinology 94: 1427-1431, 1974). Statistical significance was calculated according to a multiple-range test (Kramer, Biometrics 12: 307-310,1956).

As to `CC12CCC(=O)C=C1C=CC1C2CCC2(C)C(=O)C3CCCC3C12` (centres unmarked) [SA-208-59], the “Inhibition Type V 17B-HSD % Inh. At 3 · 10^−7 (first value in parentheses)” value in assay [1] (first of two concentrations, 3 · 10^−7) was “(72%”. The “Inhibition Type V 17B-HSD % Inh. At 3 · 10^−7 (second value in parentheses)” value in assay [1] (second of two concentrations, 3 · 10^−7) is on record as 88) %.
For the compound `CC(=O)O[C@]1(C(C)=O)CC[C@H]2[C@@H]3C[C@H](C)C4=CC(=O)CC[C@]4(C)[C@H]3CC[C@@]21C` [Medroxyprogesterone acetate, reference compound], the “inhibition of type 5 17β-hydroxysteroid dehydrogenase (in words)” value in assay [1] is reported as “inhibit that type 5 enzyme”.
For the compound `CC(=O)O[C@]1(C(C)=O)CC[C@H]2[C@@H]3C=C(Cl)C4=CC(=O)CC[C@]4(C)[C@H]3CC[C@@]21C` [chlormadinone acetate, reference compound], the “inhibition of type 5 17β-hydroxysteroid dehydrogenase (in words)” value in assay [1] is on record as “inhibit that type 5 enzyme”.
Take `CCCCCO[C@]1(C(C)=O)CC[C@H]2[C@@H]3C=C(C)C4=CC(=O)CC[C@]4(C)[C@H]3CC[C@@]21C` [EM-1127, 6-Methyl-17α-pentyloxy-4,6-pregnadien-3,20-dione]: the “Inhibition Type V 17β-HSD % Inh.” value in assay [1] (at 3.10^−6) is given as 91) %; in assay [1] (at 3.10^−7), “(71%”. The “Androgenic Activity Shionogi, Basal” value in assay [2] (E^−6) turned out to be 92; in assay [2] (E^−7), 85.

Values taken from patent publication US6541463B1, “Inhibitors of type 5 and type 3 17β-hydroxysteroid dehydrogenase and methods for their use” (Endorecherche, Inc., priority 1998, dated 2003).
